{
  "source": "patent US12257216B2",
  "about": "“Treatment for hot flushes” (Dignity Health, priority 2017, dated 2025)",
  "key": {"[1]": {"tested_on": "ovariectomized rats", "assay": "ambient warming-induced cold-seeking test in a thermogradient apparatus", "type": "in vivo, rat", "details": "vs OVX Vehicle+Vehicle", "description": "Experiments were performed in adult female Wistar rats (Envigo) weighting 240-280 g at the day of the first surgery (Day 0). Rats were housed three per cage in standard “show boxes”. The room was maintained on a 12:12 h light-dark cycle (lights-on at 6 AM) at 24±2° C. All protocols were approved by the Institutional Animal Care and Use Committee.\nOn Day 0, each rat was subjected to a bilateral ovariectomy or sham surgery, either with or without simultaneous implantation of a miniature data logger into the peritoneal cavity for body temperature measurement. On Day 7, the ovariectomized rats were implanted subcutaneously with a capsule containing either estradiol or vehicle, and the sham-operated rats were implanted with a capsule containing vehicle. On Days 6-15, the rats were habituated to experimental setups and procedures. The rats were taken into experiments between Days 16 and 20 (Experiments 1-3) or on Days 13 and 20 (Experiment 4); each rat was used in two experiments. Thermal discomfort was studied in one of two tests: the ambient warming-induced cold-seeking test in a thermogradient apparatus (cold-seeking test; Experiments 1-3) or the internal warming-induced cessation of warm sucrose intake test (sucrose intake cessation test; Experiment 4). Some ovariectomized rats were treated with a TRPV1. antagonist (capsazepine, Al 165442, or SB366791) or vehicle prior to a test. After experiments (Day 21), each rat used in Experiments 1-3 was euthanized, and the uterus was removed and weighed to confirm the completeness of the ovariectomy and the effectiveness of the estradiol replacement procedure.\nThe goal of Experiment 1 was to determine whether ovariectomy facilitates the cold-seeking behavior after heat exposure, and whether this facilitation (if it occurs) is estradiol-dependent. […]\nCold-seeking test. […] The preferred ambient temperature was recorded for 10 min. […]"}, "[2]": {"details": "as supported by animal studies; cited from earlier work"}, "[3]": {"target": "TRPV1 (Homo sapiens, UniProt Q8NER1)", "sequence (Q8NER1 whole entry, species assumed)": "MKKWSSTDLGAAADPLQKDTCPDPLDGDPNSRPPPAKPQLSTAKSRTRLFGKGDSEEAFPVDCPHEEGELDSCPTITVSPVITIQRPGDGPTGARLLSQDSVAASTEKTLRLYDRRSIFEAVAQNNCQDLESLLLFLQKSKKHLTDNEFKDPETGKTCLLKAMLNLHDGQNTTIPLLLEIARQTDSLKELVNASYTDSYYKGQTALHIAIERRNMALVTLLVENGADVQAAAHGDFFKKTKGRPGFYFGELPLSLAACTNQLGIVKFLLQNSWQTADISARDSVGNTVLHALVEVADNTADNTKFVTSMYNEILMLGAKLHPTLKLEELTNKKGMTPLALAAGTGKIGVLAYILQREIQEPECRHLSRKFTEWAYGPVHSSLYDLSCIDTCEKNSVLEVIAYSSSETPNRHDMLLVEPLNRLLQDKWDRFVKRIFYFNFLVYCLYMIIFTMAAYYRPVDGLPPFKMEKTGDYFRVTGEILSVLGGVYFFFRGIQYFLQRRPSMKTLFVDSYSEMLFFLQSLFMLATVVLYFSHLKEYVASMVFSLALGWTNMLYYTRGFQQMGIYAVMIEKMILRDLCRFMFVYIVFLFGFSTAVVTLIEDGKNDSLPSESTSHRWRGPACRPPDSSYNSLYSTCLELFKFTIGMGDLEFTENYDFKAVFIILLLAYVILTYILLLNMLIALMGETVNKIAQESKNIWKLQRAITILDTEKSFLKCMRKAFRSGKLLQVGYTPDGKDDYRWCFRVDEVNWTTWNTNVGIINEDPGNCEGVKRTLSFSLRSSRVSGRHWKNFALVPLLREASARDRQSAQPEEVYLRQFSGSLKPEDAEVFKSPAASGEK", "details": "cited from earlier work"}, "[4]": {"tested_on": "ovariectomized rats", "assay": "uterus mass after ovariectomy and estradiol replacement", "type": "in vivo, rat", "details": "Experiment 1; ovariectomized rats with estradiol replacement; mean±SE; Day 21", "source_text": "On Day 0, each rat was subjected to a bilateral ovariectomy or sham surgery, either with or without simultaneous implantation of a miniature data logger into the peritoneal cavity for body temperature measurement. On Day 7, the ovariectomized rats were implanted subcutaneously with a capsule containing either estradiol or vehicle, and the sham-operated rats were implanted with a capsule containing vehicle. On Days 6-15, the rats were habituated to experimental setups and procedures. The rats were taken into experiments between Days 16 and 20 (Experiments 1-3) or on Days 13 and 20 (Experiment 4); each rat was used in two experiments. Thermal discomfort was studied in one of two tests: the ambient warming-induced cold-seeking test in a thermogradient apparatus (cold-seeking test; Experiments 1-3) or the internal warming-induced cessation of warm sucrose intake test (sucrose intake cessation test; Experiment 4). Some ovariectomized rats were treated with a TRPV1. antagonist (capsazepine, Al 165442, or SB366791) or vehicle prior to a test. […] All data arc expressed as mean±SE. The preferred ambient temperature and sucrose intake data analyzed by a two-way repeated-measurements ANOVA, followed by the Fisher or Newman-Keuls multiple comparisons test, as appropriate. The uterus mass data were analyzed by a one-way ANOVA followed by the Fisher test. […]"}, "[5]": {"tested_on": "ovariectomized rats", "assay": "internal warming-induced cessation of warm sucrose intake test (sucrose intake cessation test)", "type": "in vivo, rat", "details": "Experiment 4, SB366791 10 mg/kg by oral gavage 20 min prior to heat exposure (32.5° C., 10 min), vs OVX Vehicle+Vehicle", "description": "Experiments were performed in adult female Wistar rats (Envigo) weighting 240-280 g at the day of the first surgery (Day 0). Rats were housed three per cage in standard “show boxes”. The room was maintained on a 12:12 h light-dark cycle (lights-on at 6 AM) at 24±2° C. All protocols were approved by the Institutional Animal Care and Use Committee. On Day 0, each rat was subjected to a bilateral ovariectomy or sham surgery, either with or without simultaneous implantation of a miniature data logger into the peritoneal cavity for body temperature measurement. On Day 7, the ovariectomized rats were implanted subcutaneously with a capsule containing either estradiol or vehicle, and the sham-operated rats were implanted with a capsule containing vehicle. On Days 6-15, the rats were habituated to experimental setups and procedures. […] Each burette was fitted with a stainless steel spout and filled with a 0.3 M sucrose solution at either 27 or 40° C., and sucrose solution consumption was recorded for 15 min. […] All data arc expressed as mean±SE. The preferred ambient temperature and sucrose intake data analyzed by a two-way repeated-measurements ANOVA, followed by the Fisher or Newman-Keuls multiple comparisons test, as appropriate. The uterus mass data were analyzed by a one-way ANOVA followed by the Fisher test. […]"}},
  "note": "“Also recorded” adds a separate entry of the source.",
  "data": [
    {"molecule": "Cc1cc2c(NC(=O)N[C@@H]3CC(CF)(CF)Oc4cc(Cl)ccc43)cccc2cn1", "note": "[A1165442]", "values": [
      {"measurement": "heat exposure-induced cold-seeking behavior (preferred ambient temperature)", "setting": "[1]; Experiment 3, A1165442 100 mg/kg by oral gavage prior to 10-min mild heat exposure (31° C.), 100 mg/kg", "result": "strongly attenuated; also recorded: treat this thermal discomfort; also recorded: significant difference"}
    ]},
    {"molecule": "FC(F)(F)c1ccc(-c2cc(Nc3ccc4ncsc4c3)ncn2)c(NCC2CCCCC2)c1", "note": "[AMG7905]", "values": [
      {"measurement": "effect on body temperature", "setting": "[2]", "result": "cause hypothermia"},
      {"measurement": "effect on activation of TRPV1 by protons", "setting": "[3]", "result": "potentiate the activation of TRPV1 by protons"}
    ]},
    {"molecule": "C[C@]12CC[C@@H]3c4ccc(O)cc4CC[C@H]3[C@@H]1CC[C@@H]2O", "note": "[Estradiol, estradiol]", "values": [
      {"measurement": "uterus mass", "setting": "[4]", "result": "0.42 ± 0.02", "unit": "g"}
    ]},
    {"molecule": "COc1cccc(NC(=O)/C=C/c2ccc(Cl)cc2)c1", "note": "[SB366791]", "values": [
      {"measurement": "cumulative intake of warm (40° C.) sucrose solution (avoidance of internal warming)", "setting": "[5]", "result": "attenuated; also recorded: treat this thermal discomfort; also recorded: significant difference"}
    ]},
    {"molecule": "Oc1cc2c(cc1O)CN(C(=S)NCCc1ccc(Cl)cc1)CCC2", "note": "[capsazepine]", "values": [
      {"measurement": "heat exposure-induced cold-seeking behavior (preferred ambient temperature)", "setting": "[1]; Experiment 2, capsazepine 40 mg/kg by oral gavage 30 min prior to 10-min mild heat exposure (31° C.)", "result": "strongly attenuated; also recorded: treat this thermal discomfort"},
      {"measurement": "heat exposure-induced cold-seeking behavior (preferred ambient temperature)", "setting": "[1]; Experiment 2, capsazepine 40 mg/kg by oral gavage 30 min prior to 10-min mild heat exposure (31° C.), listed as Capsazepine", "result": "significant difference"}
    ]}
  ]
}
